Results on one molecule are retold here after patent publication US7704975B2, “Modafinil compound and cyclodextrin mixtures” (Cephalon, Inc., priority 2000, dated 2010).

For one data set, the system named is mice. The conditions noted are these: single administration; cited from earlier work.
The test system of the next data set is monkeys. As to conditions: single administration; cited from earlier work.
Data set [1] in a line: Aqueous solubility of modafinil, alone and in HPβCD solutions. Type of data set: physicochemical. The conditions noted are these: thermodynamic from solid. As for the experimental part: The following HPLC method may be used to measure the modafinil compound content in the compositions. Filter a solution saturated with a modafinil compound through a 1.2 μm syringe filter. Dilute 10 μL of the clear solution to 1 mL with 990 μL of dimethylsulfoxide (Fischer Certified ACS grade). Take 10 μL of the diluted solution for the HPLC analysis, with the following representative column conditions: • Flow rate: 1.2 mL/min. • Column: ODS, 4.6×20 mm, Column Temp: 30° C. • Mobil phase: 80%(65% Acetonitrile/35%1M phosphate buffer) 20% water • Analysis time: 5 minutes • Wavelength: 222 nanometers
Concentration can be calculated by comparison to area from a modafinil compound standard used at 0.4 mg/mL with appropriate dilution.

Converted amounts (≈) assume the structure as drawn. Like-named read-outs stand apart in the source and are kept apart here.

Turning to `NC(=O)C[S+]([O-])C(c1ccccc1)c1ccccc1` (stereo not drawn) [modafinil, 2-(benzhydryl-sulfinyl)acetamide], in the data set on mice, the locomotor activity entry is reported as “increased locomotor activity”. For the same molecule, in the data set with monkeys, the nocturnal activity entry is “increased nocturnal activity”. Also, the solubility in data set [1] (aqueous with cosolvent or surfactant or cyclodextrin, 2% HPβCD solution, from 1:1 complex, read-out: amount solubilized) is around 4.4 mg/mL (≈ 16.1 mM); in data set [1] (aqueous with cosolvent or surfactant or cyclodextrin, 20% HPβCD solution, from 1:1 complex, read-out: amount solubilized), around 39.5 mg/mL (≈ 144 mM); in data set [1] (aqueous with cosolvent or surfactant or cyclodextrin, 40% HPβCD solution, from 1:1 complex, read-out: amount solubilized) it was around 78.4 mg/mL (≈ 287 mM); in data set [1] (water without cyclodextrin, water, read-out: aqueous solubility), 0.44 mg/mL (≈ 1.61 mM).
